Results published in patent publication US20080188449A1, “Treatment of Conditions Caused By Calcium Abnormalities” (priority 2004, published 2008).

Tests used:
NFκB transactivation [1] = assay: κB-luciferase reporter assay (TNF-α induced); assay type: cell-based
Procedure: Having established that triptolide induced cell death is dependent upon free calcium concentration, Applicants next determined if this was also a requirement for the inhibition of NFκB transcription. HeLa cells were transiently transfected with the κB-luciferase reporter construct for 8 hours before being washed and then cultured in the presence or absence of calcium containing medium for 16 hours. Triptolide (100 nM) was pre-incubated with cells for 1 hour before addition of 15 ng/ml of TNF-α for 4 hours.
As an additional experiment, transcriptional activity was also assessed by site-directed calcium buffering. HeLa cells were co-transfected with the κB-luciferase plasmid as well as one of the following constructs: GFP empty vector, NES-PV-GFP, or NLS-PV-GFP and proper GFP localization was confirmed. Cells were grown in the presence of calcium for 24 hours before the addition of 100 nM triptolide and 15 ng/ml TNF-α.
NFκB transactivation was examined using the κb-luciferase reporter construct. HeLa cells were transiently transfected and pre-treated with 0-100 nM triptolide for one hour prior to TNF-α addition. Cells were assessed for NFκB driven luciferase expression after an additional five hours of incubation, at which time TNF-α had induced transcriptional activity by approximately 15-fold in control cells. […] The results thus far support a divergence of triptolide-mediated functions: the pathway regulating growth arrest/death is more sensitive to triptolide and calcium than the mechanism leading to transcriptional repression of NFκB.
Based upon Applicants' studies examining the concentration dependent effect of triptolide on the two measured biological endpoints, cell death and transcriptional repression, Applicants wanted to determine how modulating triptolide's structure may also discriminate between the two pathways. For cell viability assays, HeLa cells were incubated with 0, 0.1, 1, or 10 μM of each analog or triptolide for 24 hours and then counted using trypan blue dye exclusion. […] NFκB transcriptional inhibition was measured using the κB-luciferase assay as previously described following 5 hours of incubation with each analog (0-10 μM) and TNF-α addition.
A triple κB promoter-Luciferase reporter construct was a gift of Sankar Ghosh (Yale University). HeLa cells were plated at a density of 2×10^5 in 12 well plates and transfected with 100 ng of the κB-Luciferase plasmid plus Lipofectamine 2000 (Invitrogen) for 24 hours before the addition of 100 nM triptolide for one hour and 15 ng/ml of recombinant (human) TNF-α (Roche) for an additional five hours. The transfection efficiency of HeLa was determined to be 80-90%, and all samples were normalized to protein concentration. Luciferase assays were performed using the Firefly luciferase kit as per manufacturer's protocol (Promega) and results obtained on the Wallac Victor2 1420 Multilabel Counter (Perkin Elmer).

NFκB transactivation [2] = assay: κB-luciferase reporter assay (TNF-α induced); assay type: cell-based; conditions: 10 nM triptolide+TNF-α, after 24 hours
HeLa cells [3] = assay: HeLa cell viability by trypan blue dye exclusion; assay type: cell-based; conditions: 10 μM (so in the source), 48 hours
HeLa cells [4] = assay: [^3H]-triptolide competition binding in HeLa cells; conditions: 1 or 10 μM competitor one hour before [^3H]-triptolide, HeLa cells
Procedure: To gain insight into triptolide's mechanism of action Applicants sought to determine its specific binding activity utilizing a system employing [^3H]-triptolide. In addition to competition with 1 μM or 10 μM unlabeled triptolide, Applicants also measured the binding affinities of triptolide analogs (FIG. 1A). These analogs have been previously described and differ structurally from triptolide in the hydrolysis of the 12,13 epoxide (2), and formation of the ketone at the C-14 hydroxyl (3) (FIG. 1A). […] The effective interaction of these analogs with a presumed triptolide binding entity led us to their use in subsequent experiments addressing the mode of triptolide's biological functions.
To address first the nature of triptolide binding within the cell, Applicants determined this interaction was reversible as [^3H]-triptolide labeling was out competed by subsequent addition of excess unlabeled triptolide (FIG. 2A). […] Although 25% of the total cellular counts (i.e., representing bound triptolide) were found in the cytosolic fraction, it is uncertain whether this is specific binding or simply that free triptolide had dissociated from its binding protein due to experimental manipulation during fractionation. Since the data thus far had only shown binding within whole cells, Applicants next determined if this triptolide binding protein could be further characterized and/or enriched by its association with chromatographic reagents. HeLa cells were once again labeled with [^3H]-triptolide and total cell lysates were then passed over the anion exchange resin DEAE. Batch elutions with increasing NaCl concentrations were used to disassociate interactions of variable charge. […] Importantly, Applicants also observed that [^3H]-triptolide would only bind to intact cells in culture but would not bind to any component of a total cellular lysate as assessed by interaction with the DEAE resin. Negative results for a triptolide binding interaction were also observed with DNA-cellulose and the cation exchange resin SPFF (sulphopropyl).
Labeling studies were performed by the addition of approximately 30 nM [^3H]-triptolide directly into the culture media for one hour at 37° C. For cold competition studies, 1 μM triptolide was incubated with the cells for one hour before or after the addition of [^3H]-triptolide. Triptolide analog studies followed a similar protocol where concentrations used for competition were either 1 or 10 μM added before [^3H]-triptolide. Medium was removed and cells were washed 3× in cold PBS. Total cell lysates were prepared (150 mM NaCl, 50 mM Tris-HCl pH 7.4, 1 mM EDTA, 1% Triton X-100, and Complete protease inhibitors (Roche)) and protein was quantitated before measuring the [^3H]-triptolide binding activity via liquid scintillation.

CC(C)[C@]12O[C@H]1[C@@H]1O[C@]13[C@]1(O[C@H]1C[C@H]1C4=C(CC[C@@]13C)C(=O)OC4)[C@@H]2O [triptolide, Triptolide] was tested, and the “TNF-α driven transcriptional activity of NFκB” value (NFκB transactivation [1]; 10 nM, 6 hours) was “did not inhibit”, the “TNF-α driven transcriptional activity of NFκB” value (NFκB transactivation [1]; 25 nM, 6 hours) was “did not inhibit” and the “suppression of NFκB transcriptional activity” value (NFκB transactivation [1]; 50 nM, 6 hours) was 20%. The inhibition at 0.1 µM (NFκB transactivation [1]; 0.1 μM, 5 hours with TNF-α, analog study) was over 60%, the “inhibition of NFκB transcriptional activity” value (NFκB transactivation [1]; 100 nM, 6 hours, average) was 60% and the NFκB transactivation (NFκB transactivation [1]; 100 nM, GFP vector, NES-PV-GFP or NLS-PV-GFP co-transfected) was “retained the ability to suppress NFκB transactivation in all experimental conditions”. For the same molecule, the “TNF-α induced NFκB transactivation” value (NFκB transactivation [1]; 100 nM, presence and absence of calcium) was “effectively inhibited”, the “NFκB transcriptional activity at higher concentration” value (NFκB transactivation [1]; 1 or 10 μM, 5 hours) was “attenuated further” and the luciferase activity induction (NFκB transactivation [2]) was over 20 fold. The “cell proliferation and cell death” value (HeLa cells [3]) was “inhibited cell proliferation but did not induce cell death” and the “displacement of [^3H]-triptolide binding” value (HeLa cells [4]) was “significantly competed”.
